From US20230398099A1, “METHODS OF TREATING CONDITIONS RELATED TO THE S1P1 RECEPTOR” (Arena Pharmaceuticals, Inc., priority 2020, published 2023)
Where two headings read alike, the source gives them in different places.

Experiments:
hS1PR5 = hS1PR5 (Homo sapiens, UniProt Q9H228); assay: b-arrestin recruitment assay; assay type: cell-based; conditions: for EC50: EC50 [95% confidence interval] (n)
hS1PR4 = target: T1, hS1PR4 (Homo sapiens, UniProt O95977); assay: b-arrestin recruitment assay; assay type: cell-based; conditions: for EC50: EC50 [95% confidence interval] (n)
T1 sequence (O95977 1-384): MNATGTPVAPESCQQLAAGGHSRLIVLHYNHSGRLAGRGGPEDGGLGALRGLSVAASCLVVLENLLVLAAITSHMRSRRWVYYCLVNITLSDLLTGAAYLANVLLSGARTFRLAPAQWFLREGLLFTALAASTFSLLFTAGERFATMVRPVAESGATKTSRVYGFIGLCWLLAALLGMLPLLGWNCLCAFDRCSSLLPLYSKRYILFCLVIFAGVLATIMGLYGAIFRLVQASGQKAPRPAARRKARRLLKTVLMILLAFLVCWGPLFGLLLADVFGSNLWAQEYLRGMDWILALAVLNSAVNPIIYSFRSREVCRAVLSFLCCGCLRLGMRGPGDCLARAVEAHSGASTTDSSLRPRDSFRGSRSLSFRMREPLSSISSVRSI

[1] = system: FITC-induced contact hypersensitivity (CHS)/dermatitis in BALB/c mice; assay: mouse model of FITC-induced contact dermatitis; assay type: in vivo; conditions: for skin thickening (ear thickening): FIG. 8
From the text: Fluorescein isothiocyanate isomer I (FITC) was used to induce contact hypersensitivity (CHS)/dermatitis in BALB/c mice by administering two sensitizing applications of the hapten onto the shaved flanks of the animals on Days 0 and 5, followed by three days of FITC challenge on the dorsal surface of both ears on Days 10-12. […] Treatment was initiated on Day −1 to model prophylactic treatment.

hS1P1 = hS1P1 (Homo sapiens, UniProt P21453); assay: S1P1 GTPgS binding assay; assay type: biochemical; conditions: for EC50: S1P1 GTPgS binding, EC50 [95% confidence interval] (n)
Chain of hS1P1 (P21453 whole entry): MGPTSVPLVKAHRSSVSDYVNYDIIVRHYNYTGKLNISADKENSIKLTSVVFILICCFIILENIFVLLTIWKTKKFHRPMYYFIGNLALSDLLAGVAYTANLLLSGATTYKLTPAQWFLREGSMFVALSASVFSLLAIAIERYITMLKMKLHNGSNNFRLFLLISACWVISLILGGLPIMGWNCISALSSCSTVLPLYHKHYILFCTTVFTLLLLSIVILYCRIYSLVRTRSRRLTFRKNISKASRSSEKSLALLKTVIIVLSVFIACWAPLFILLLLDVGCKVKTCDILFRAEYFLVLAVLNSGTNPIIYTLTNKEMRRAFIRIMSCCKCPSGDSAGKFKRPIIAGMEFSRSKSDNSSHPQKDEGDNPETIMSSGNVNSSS

[2] = system: OVA-induced acute asthma model in mice; assay: ovalbumin (OVA)-induced acute asthma model; assay type: in vivo, mouse; conditions: QD Day 12-15; for immune cells in bronchoalveolar lavage (BAL): FIG. 9
Procedure: The OVA model is a widely used pre-clinical allergic asthma model and recapitulates many of the hallmarks of allergic asthma in humans. These include elevated IgE and TH2 related cytokines, mucus hypersecretion, airway inflammation, goblet cell hyperplasia, epithelial hypertrophy, and airway hyperreactivity to stimuli.
Mice were sensitized with an intraperitoneal (IP) injection of OVA and adjuvant on days 0 and 7. Mice were then challenged with intranasal delivery of OVA (10-200 μg) in saline on days 13-15 with endpoints conducted on day 16. Endpoints in this model generally included total and differential cell counts as well as inflammatory mediator content in the broncho-alveolar lavage fluid, airway hyperreactivity and detailed lung mechanics measured with the flexiVent™ rodent mechanical ventilator as well as histopathology and immunohistochemistry on lung sections.

hS1PR1 = hS1PR1 (Homo sapiens, UniProt P21453); assay: b-arrestin recruitment assay; assay type: cell-based; conditions: for EC50: b-arrestin recruitment, hS1PR1, EC50 [95% confidence interval] (n)
Chain of hS1PR1 (P21453 whole entry): as above

S1P2 Receptor = S1P2 Receptor (Homo sapiens, UniProt O95136); assay: S1P2 receptor internalization; assay type: cell-based; conditions: N 5
Chain of S1P2 Receptor (O95136 whole entry): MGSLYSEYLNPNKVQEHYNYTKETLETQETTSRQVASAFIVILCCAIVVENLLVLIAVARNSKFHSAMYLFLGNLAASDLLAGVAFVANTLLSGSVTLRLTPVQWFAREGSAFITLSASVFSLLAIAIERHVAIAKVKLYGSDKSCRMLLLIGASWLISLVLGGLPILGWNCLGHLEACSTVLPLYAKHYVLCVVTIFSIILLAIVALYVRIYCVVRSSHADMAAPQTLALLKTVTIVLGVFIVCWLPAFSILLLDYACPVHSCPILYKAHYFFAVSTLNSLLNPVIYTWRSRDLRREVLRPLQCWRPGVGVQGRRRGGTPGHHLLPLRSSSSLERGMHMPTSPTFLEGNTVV

hS1PR2 = hS1PR2 (Homo sapiens, UniProt O95136); assay: b-arrestin recruitment assay; assay type: cell-based
Chain of hS1PR2 (O95136 whole entry): as above

hS1PR3 = hS1PR3 (Homo sapiens, UniProt Q99500); assay: b-arrestin recruitment assay; assay type: cell-based
Chain of hS1PR3 (Q99500 whole entry): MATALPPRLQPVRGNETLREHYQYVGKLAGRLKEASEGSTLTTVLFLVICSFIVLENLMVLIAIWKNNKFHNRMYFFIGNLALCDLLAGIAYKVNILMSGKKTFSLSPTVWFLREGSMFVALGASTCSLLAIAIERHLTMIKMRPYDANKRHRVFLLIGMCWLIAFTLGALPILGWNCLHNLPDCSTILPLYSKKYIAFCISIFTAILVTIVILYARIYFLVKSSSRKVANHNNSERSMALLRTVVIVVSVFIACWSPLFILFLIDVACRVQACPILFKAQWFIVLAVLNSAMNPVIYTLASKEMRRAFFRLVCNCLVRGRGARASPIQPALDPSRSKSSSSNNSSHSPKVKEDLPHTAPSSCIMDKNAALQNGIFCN

[3] = 1 mg/kg daily oral, compared to vehicle, dose-dependent, FIG. 6
[4] = 1 mg/kg daily oral, compared to vehicle, dose-dependent, FIG. 7

Chain of hS1PR5 (Q9H228 whole entry): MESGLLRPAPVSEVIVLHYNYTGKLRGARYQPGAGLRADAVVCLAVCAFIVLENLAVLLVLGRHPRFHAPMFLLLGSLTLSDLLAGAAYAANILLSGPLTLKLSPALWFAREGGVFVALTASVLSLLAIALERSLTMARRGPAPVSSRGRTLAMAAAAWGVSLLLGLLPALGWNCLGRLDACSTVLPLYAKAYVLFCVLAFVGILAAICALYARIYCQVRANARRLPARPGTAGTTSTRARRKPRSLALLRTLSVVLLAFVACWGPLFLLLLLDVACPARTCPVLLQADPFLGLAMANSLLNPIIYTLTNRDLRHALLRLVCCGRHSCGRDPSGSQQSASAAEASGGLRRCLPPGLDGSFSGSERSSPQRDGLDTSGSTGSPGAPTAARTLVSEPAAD

EC50 (hS1PR5; b-arrestin recruitment, hS1PR5) [nM]	Emax (hS1PR5; read-out: Emax) [%]	EC50 (hS1PR4; b-arrestin recruitment, hS1PR4) [nM]	Emax (hS1PR4; read-out: Emax) [%]	Emax (hS1P1) [%]	EC50 (hS1P1) [nM]	Emax (hS1PR1) [%]	EC50 (hS1PR1) [nM]	Efficacy, % of S1P (S1P2 Receptor) [%]	Compound	further results
0.71	120	3.2	104	98	1.8	128	6.2	65	CC(C)Cc1ccc(-c2nc(-c3ccc(CN4CC(C(=O)O)C4)c(F)c3)no2)cc1 [Compound 1, 1-{2-fluoro-4-[5-(4-isobutylphenyl)-1,2,4-oxadiazole-3-yl]benzyl}-3-azetidinecarboxylic acid]	skin thickening (ear thickening) ([1]; 0.1 mg/kg daily oral): had no effect; B cells in the skin [1, 3]: reduced; T cells in the skin [1, 3]: reduced; WBC count [1, 4]: reduced; lymphocyte frequency [1, 4]: reduced; skin thickening (ear thickening) ([1]; 1 mg/kg daily oral): reduced skin thickening; immune cells in bronchoalveolar lavage (BAL) ([2]; 0.1 mg/kg PO): did not have significant effect; immune cells in bronchoalveolar lavage (BAL) ([2]; 1 mg/kg PO): did not have significant effect; lung function measured by airway resistance or elastance ([2]; PO, Methacholine challenge, FIG. 10): no significant effect; EC50 (S1P2 Receptor): 2510 nM
	114	0.99	117	102	77	113	18.3	100	CCCCCCCCCCCCC/C=C/[C@@H](O)[C@@H](N)COP(=O)(O)O [Compound S1P, sphingosine-1-phosphate]	Emax (hS1PR2): 108%; Emax (hS1PR3): 113%; EC50 (hS1PR3; b-arrestin recruitment, hS1PR3, EC50 [95% confidence interval] (n)): 13.9 nM
7.3	117	117	93	104		130			CC(C)Oc1ccc(-c2nc(-c3cccc4c3CC[C@@H]4NCCO)no2)cc1C#N [Ozanimod]	

Compound	EC50 (hS1PR5; b-arrestin recruitment, hS1PR5) [nM]	Emax (hS1PR5; read-out: Emax) [%]	EC50 (hS1PR4; b-arrestin recruitment, hS1PR4) [nM]	Emax (hS1PR4; read-out: Emax) [%]	Emax (hS1P1) [%]	EC50 (hS1P1) [nM]	Emax (hS1PR1) [%]	EC50 (hS1PR1) [nM]	Efficacy, % of S1P (S1P2 Receptor) [%]	further results
CCCCCCCCc1ccc(CC[C@](N)(CO)COP(=O)(O)O)cc1 [Fingolimod(P)]			0.76						80	Emax (hS1PR5; b-arrestin recruitment, hS1PR5, % relative to S1P): 62%; Emax (hS1PR4; b-arrestin recruitment, hS1PR4, % relative to S1P): 94%
